Reference: the NIST ThermoML archive (doi:10.1021/je4000394)
Numbers after ± are expanded uncertainties.

What was measured:
[1] = xn = mol fraction of the nth substance listed; conditions: Liquid; for mass density: Vibrating tube method; for viscosity: 325.2 K, Flow viscometer
[2] = Liquid, Vibrating tube method

SMILES: CCCCCCCCCCCCCCCCCC [octadecane] + CCCCCCCCCC
- mass density ([1]; 323 K, 100 kPa, x2 = 0): 761.2 ± 0.4 kg/m3
- mass density ([1]; 323 K, 100 kPa, x2 = 0.75): 726.3 ± 0.4 kg/m3
- mass density ([1]; 323 K, 1000 kPa, x2 = 0): 761.9 ± 0.4 kg/m3
- mass density ([1]; 323 K, 1000 kPa, x2 = 0.75): 727.1 ± 0.4 kg/m3
- mass density ([1]; 323 K, 2000 kPa, x2 = 0): 762.7 ± 0.4 kg/m3
- mass density ([1]; 323 K, 2000 kPa, x2 = 0.75): 728 ± 0.4 kg/m3
- mass density ([1]; 323 K, 3000 kPa, x2 = 0): 763.3 ± 0.4 kg/m3
- mass density ([1]; 323 K, 3000 kPa, x2 = 0.75): 728.8 ± 0.4 kg/m3
- mass density ([1]; 323 K, 4000 kPa, x2 = 0): 764 ± 0.4 kg/m3
- mass density ([1]; 323 K, 4000 kPa, x2 = 0.75): 729.6 ± 0.4 kg/m3
- mass density ([1]; 323 K, 5000 kPa, x2 = 0): 764.8 ± 0.4 kg/m3
- mass density ([1]; 323 K, 5000 kPa, x2 = 0.75): 730.4 ± 0.4 kg/m3
- mass density ([1]; 323 K, 6000 kPa, x2 = 0): 765.4 ± 0.4 kg/m3
- mass density ([1]; 323 K, 6000 kPa, x2 = 0.75): 731.2 ± 0.4 kg/m3
- mass density ([1]; 323 K, 7000 kPa, x2 = 0): 766 ± 0.4 kg/m3
- mass density ([1]; 323 K, 7000 kPa, x2 = 0.75): 732.1 ± 0.4 kg/m3
- mass density ([1]; 323 K, 8000 kPa, x2 = 0): 766.7 ± 0.4 kg/m3
- mass density ([1]; 323 K, 8000 kPa, x2 = 0.75): 732.9 ± 0.4 kg/m3
- mass density ([1]; 323 K, 9000 kPa, x2 = 0): 767.5 ± 0.4 kg/m3
- mass density ([1]; 323 K, 9000 kPa, x2 = 0.75): 733.7 ± 0.4 kg/m3
- mass density ([1]; 323 K, 10000 kPa, x2 = 0): 768.1 ± 0.4 kg/m3
- mass density ([1]; 323 K, 10000 kPa, x2 = 0.75): 734.5 ± 0.4 kg/m3
- mass density ([1]; 323.1 K, 100 kPa, x2 = 0.25): 752.2 ± 0.4 kg/m3
- mass density ([1]; 323.1 K, 100 kPa, x2 = 0.5): 740.8 ± 0.4 kg/m3
- mass density ([1]; 323.1 K, 1000 kPa, x2 = 0.25): 752.9 ± 0.4 kg/m3
- mass density ([1]; 323.1 K, 1000 kPa, x2 = 0.5): 741.6 ± 0.4 kg/m3
- mass density ([1]; 323.1 K, 2000 kPa, x2 = 0.25): 753.7 ± 0.4 kg/m3
- mass density ([1]; 323.1 K, 2000 kPa, x2 = 0.5): 742.4 ± 0.4 kg/m3
- mass density ([1]; 323.1 K, 3000 kPa, x2 = 0.25): 754.5 ± 0.4 kg/m3
- mass density ([1]; 323.1 K, 3000 kPa, x2 = 0.5): 743.1 ± 0.4 kg/m3
- mass density ([1]; 323.1 K, 4000 kPa, x2 = 0.25): 755.2 ± 0.4 kg/m3
- mass density ([1]; 323.1 K, 4000 kPa, x2 = 0.5): 743.9 ± 0.4 kg/m3
- mass density ([1]; 323.1 K, 5000 kPa, x2 = 0.25): 755.9 ± 0.4 kg/m3
- mass density ([1]; 323.1 K, 5000 kPa, x2 = 0.5): 744.7 ± 0.4 kg/m3
- mass density ([1]; 323.1 K, 6000 kPa, x2 = 0.25): 756.7 ± 0.4 kg/m3
- mass density ([1]; 323.1 K, 6000 kPa, x2 = 0.5): 745.5 ± 0.4 kg/m3
- mass density ([1]; 323.1 K, 7000 kPa, x2 = 0.25): 757.3 ± 0.4 kg/m3
- mass density ([1]; 323.1 K, 7000 kPa, x2 = 0.5): 746.2 ± 0.4 kg/m3
- mass density ([1]; 323.1 K, 8000 kPa, x2 = 0.25): 758.1 ± 0.4 kg/m3
- mass density ([1]; 323.1 K, 8000 kPa, x2 = 0.5): 747 ± 0.4 kg/m3
- mass density ([1]; 323.1 K, 9000 kPa, x2 = 0.25): 758.8 ± 0.4 kg/m3
- mass density ([1]; 323.1 K, 9000 kPa, x2 = 0.5): 747.8 ± 0.4 kg/m3
- mass density ([1]; 323.1 K, 10000 kPa, x2 = 0.25): 759.6 ± 0.4 kg/m3
- mass density ([1]; 323.1 K, 10000 kPa, x2 = 0.5): 748.6 ± 0.4 kg/m3
- viscosity ([1]; 100 kPa, x1 = 0.25): 0.883 ± 0.07 mPa·s
- viscosity ([1]; 100 kPa, x1 = 0.5): 1.31 ± 0.12 mPa·s
- viscosity ([1]; 100 kPa, x1 = 0.75): 1.702 ± 0.14 mPa·s

SMILES: CCCCCCCCCC [decane] + CCCCCCCCCCCCCCCCCC
- mass density ([1]; 323.2 K, 100 kPa, x1 = 1): 707 ± 0.3 kg/m3
- mass density ([1]; 323.2 K, 1000 kPa, x1 = 1): 707.9 ± 0.4 kg/m3
- mass density ([1]; 323.2 K, 2000 kPa, x1 = 1): 708.8 ± 0.4 kg/m3
- mass density ([1]; 323.2 K, 3000 kPa, x1 = 1): 709.7 ± 0.4 kg/m3
- mass density ([1]; 323.2 K, 4000 kPa, x1 = 1): 710.6 ± 0.4 kg/m3
- mass density ([1]; 323.2 K, 5000 kPa, x1 = 1): 711.5 ± 0.4 kg/m3
- mass density ([1]; 323.2 K, 6000 kPa, x1 = 1): 712.4 ± 0.4 kg/m3
- mass density ([1]; 323.2 K, 7000 kPa, x1 = 1): 713.3 ± 0.4 kg/m3
- mass density ([1]; 323.2 K, 8000 kPa, x1 = 1): 714.1 ± 0.4 kg/m3
- mass density ([1]; 323.2 K, 9000 kPa, x1 = 1): 715 ± 0.4 kg/m3
- mass density ([1]; 323.2 K, 10000 kPa, x1 = 1): 715.9 ± 0.4 kg/m3

SMILES: CCCCCCCCCCCCCCCCCC [octadecane]
- mass density ([2]; 323 K, 100 kPa): 761.2 ± 0.4 kg/m3
- mass density ([2]; 323 K, 1000 kPa): 761.9 ± 0.4 kg/m3
- mass density ([2]; 323 K, 2000 kPa): 762.7 ± 0.4 kg/m3
- mass density ([2]; 323 K, 3000 kPa): 763.3 ± 0.4 kg/m3
- mass density ([2]; 323 K, 4000 kPa): 764 ± 0.4 kg/m3
- mass density ([2]; 323 K, 5000 kPa): 764.8 ± 0.4 kg/m3
- mass density ([2]; 323 K, 6000 kPa): 765.4 ± 0.4 kg/m3
- mass density ([2]; 323 K, 7000 kPa): 766 ± 0.4 kg/m3
- mass density ([2]; 323 K, 8000 kPa): 766.7 ± 0.4 kg/m3
- mass density ([2]; 323 K, 9000 kPa): 767.5 ± 0.4 kg/m3
- mass density ([2]; 323 K, 10000 kPa): 768.1 ± 0.4 kg/m3

SMILES: CCCCCCCCCC [decane]
- mass density ([2]; 323.2 K, 100 kPa): 707 ± 0.3 kg/m3
- mass density ([2]; 323.2 K, 1000 kPa): 707.9 ± 0.4 kg/m3
- mass density ([2]; 323.2 K, 2000 kPa): 708.8 ± 0.4 kg/m3
- mass density ([2]; 323.2 K, 3000 kPa): 709.7 ± 0.4 kg/m3
- mass density ([2]; 323.2 K, 4000 kPa): 710.6 ± 0.4 kg/m3
- mass density ([2]; 323.2 K, 5000 kPa): 711.5 ± 0.4 kg/m3
- mass density ([2]; 323.2 K, 6000 kPa): 712.4 ± 0.4 kg/m3
- mass density ([2]; 323.2 K, 7000 kPa): 713.3 ± 0.4 kg/m3
- mass density ([2]; 323.2 K, 8000 kPa): 714.1 ± 0.4 kg/m3
- mass density ([2]; 323.2 K, 9000 kPa): 715 ± 0.4 kg/m3
- mass density ([2]; 323.2 K, 10000 kPa): 715.9 ± 0.4 kg/m3
